The target of assay [1] is farnesyl protein transferase (Homo sapiens, UniProt P49354+P49356). The assay is described as follows: FPT inhibition, in vitro enzyme assay. Format: biochemical. The protocol: (§1) FPT IC50 (inhibition of farnesyl protein transferase, in vitro enzyme assay) and COS Cell IC50 (Cell-Based Assay) were determined following the assay procedures described in WO 95/10516, published Apr. 20, 1995. GGPT IC50 (inhibition of geranylgeranyl protein transferase, in vitro enzyme assay), Cell Mat Assay, and anti-tumor activity (in vivo anti-tumor studies) could be determined by the assay procedures described in WO 95/10516. The disclosure of WO 95/10516 is incorporated herein by reference thereto.

The next assay concerns COS Cell. The assay is described as follows: COS Cell-Based Assay. How it is done: as §1

farnesyl protein transferase, sequence (P49356 whole entry, one chain of several): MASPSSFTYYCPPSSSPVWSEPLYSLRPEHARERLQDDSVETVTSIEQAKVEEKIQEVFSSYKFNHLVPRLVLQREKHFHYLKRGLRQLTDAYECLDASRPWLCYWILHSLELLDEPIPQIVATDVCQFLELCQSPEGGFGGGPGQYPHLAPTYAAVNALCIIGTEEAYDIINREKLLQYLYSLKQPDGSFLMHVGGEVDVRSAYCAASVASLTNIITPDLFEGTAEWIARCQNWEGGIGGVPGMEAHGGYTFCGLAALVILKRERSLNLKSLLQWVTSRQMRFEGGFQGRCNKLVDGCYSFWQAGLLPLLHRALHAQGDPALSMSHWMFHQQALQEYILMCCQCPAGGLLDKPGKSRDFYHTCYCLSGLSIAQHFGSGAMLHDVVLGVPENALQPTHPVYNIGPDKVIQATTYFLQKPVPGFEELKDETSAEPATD

On to `CC1(CC(=O)N2CCC([C@H]3c4ncc(Br)cc4CCc4cc(Cl)cc(Br)c43)CC2)CCN(S(C)(=O)=O)CC1` [Example 1], for which the IC50 in assay [1] came to 0.019 µM; with COS Cell it was 0.022 µM.

These data come from US6051582A, “Compounds useful for inhibition of farnesyl protein transferase” (Schering Corporation, priority 1998, dated 2000).
